The source of these data is ChEMBL document CHEMBL1201862, “PubChem BioAssay data set” (2004).

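Five concentrations, 48 hours, 96-well plates. GI50 marks 50% less growth.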 Calls of active or inactive are those of the source. No stated cut-off is given here; in the data, active = GI50 up to about 1.1 µM and inactive = higher.

Some test systems named below: A549; ACHN; BT-549; EKVX; HCC 2998; HCT-116; HL-60; HOP-62; HT-29; K562; MCF7; OVCAR-8; SF-295; SF-539; SK-MEL-2; SK-MEL-5; SK-OV-3; SN12C; SNB-75; UACC-62.
Experiment in all cases: inhibition of tumour cell growth, NCI panel, 48 h

In the case of `O=C1CSC(/C(=C\c2ccc(Cl)cc2)c2nc3ccccc3[nH]2)=N1`, the GI50 was 4.05 µM (inactive) in the assay with A549; 6.68 µM (inactive) in the assay on ACHN; 19.2 µM (inactive) in the assay with BT-549; 17 µM (inactive) in the assay on EKVX; 3.43 µM (inactive) with HCC 2998; 16 µM (inactive) with HCT-116. Further, the GI50 is 26.5 µM (inactive) in the assay with HL-60; 1.94 µM (inactive) with HOP-62; 21.7 µM (inactive) in the assay on HT-29; 34.4 µM (inactive) in the assay on K562; 14.6 µM (inactive) in the assay on MCF7; 7.91 µM (inactive) in the assay on OVCAR-8. The GI50 with SF-295 is 9.2 µM (inactive); in the assay on SF-539, 0.659 µM (active); with SK-MEL-2, 17.9 µM (inactive); in the assay with SK-MEL-5, 12.1 µM (inactive); with SK-OV-3, 11.5 µM (inactive); with SN12C, 17.8 µM (inactive). The results for the GI50 in the assay with SNB-75 and in the assay with UACC-62 were 12.3 µM (inactive) and 18.7 µM (inactive), respectively.

Turning to `CCOC(=O)Nc1cc2c(c(N)n1)N=C(c1ccc3ccccc3c1)CN2`, the GI50 was 0.299 µM (active) with A549; 0.258 µM (active) in the assay on ACHN; 1.75 µM (inactive) in the assay on BT-549; 2.51 µM (inactive) with EKVX; 0.215 µM (active) with HCC 2998; 0.0225 µM (active) in the assay on HCT-116. For the same molecule, the GI50 is 0.0167 µM (active) in the assay with HL-60; 0.0564 µM (active) with HOP-62; 0.301 µM (active) in the assay with HT-29; < 0.01 µM (active) with K562; 0.192 µM (active) in the assay on MCF7; < 0.0208 µM (active) in the assay on OVCAR-8. The GI50 was 0.0281 µM (active) in the assay on SF-295; 0.08 µM (active) in the assay with SF-539; 0.373 µM (active) in the assay with SK-MEL-2; < 0.0164 µM (active) in the assay on SK-MEL-5; 0.2 µM (active) in the assay with SK-OV-3; 0.0711 µM (active) with SN12C. Moreover, the results for the GI50 in the assay on SNB-75 and in the assay on UACC-62 were 0.111 µM (active) and 0.0328 µM (active), respectively.

For `Clc1ccc(C(c2ccccc2Cl)C(Cl)Cl)cc1` (stereo not drawn) [MITOTANE], the GI50 in the assay with A549 was 15.1 µM (inactive); in the assay with ACHN, 14.8 µM (inactive); with BT-549 it was 1.59 µM (inactive); in the assay on EKVX it was 17.3 µM (inactive); with HCC 2998 it was 12.7 µM (inactive); in the assay on HCT-116, 13.2 µM (inactive). Besides, the GI50 was 18.7 µM (inactive) in the assay with HL-60; 18.2 µM (inactive) in the assay with HOP-62; 16.8 µM (inactive) in the assay with HT-29; 16.3 µM (inactive) in the assay with K562; 19.2 µM (inactive) in the assay on MCF7; 20.7 µM (inactive) in the assay with OVCAR-8. The GI50 in the assay on SF-295 is 16.2 µM (inactive); in the assay with SF-539, 17.1 µM (inactive); with SK-MEL-2, 18.3 µM (inactive); in the assay with SK-MEL-5, 15.8 µM (inactive); with SK-OV-3, 18.1 µM (inactive); in the assay on SN12C it was 16.7 µM (inactive). Also, the GI50 with SNB-75 is 15.2 µM (inactive); in the assay with UACC-62, 14.8 µM (inactive).

For the molecule `COc1cccc(/C=C2\SC(=S)N(/C=C3\C(=O)Oc4ccccc4C3=O)C2=O)c1O`, the GI50 in the assay on A549 is 59.7 µM (inactive); in the assay on ACHN, 46 µM (inactive); in the assay on BT-549 it was 20 µM (inactive); in the assay on EKVX, > 100 µM (inactive); in the assay on HCC 2998, 28.8 µM (inactive); with HCT-116, 56.9 µM (inactive). The GI50 was 41.2 µM (inactive) in the assay with HL-60; 50.7 µM (inactive) with HOP-62; 78.3 µM (inactive) in the assay on HT-29; 34.4 µM (inactive) in the assay with K562; 39.4 µM (inactive) in the assay on MCF7; 80 µM (inactive) in the assay on OVCAR-8. The GI50 is 76.6 µM (inactive) in the assay on SF-295; 24.9 µM (inactive) in the assay with SF-539; 45.7 µM (inactive) in the assay with SK-MEL-2; 35.8 µM (inactive) in the assay with SK-MEL-5; 49.2 µM (inactive) in the assay with SK-OV-3; 56.4 µM (inactive) in the assay with SN12C. The GI50 with SNB-75 is 19.8 µM (inactive); in the assay with UACC-62 it was 53 µM (inactive).

Take `N/N=C(\C(=O)Nc1ccc(Cl)cc1Cl)C(c1cnc2ccccc2n1)[N+](=O)[O-]` (stereo not drawn): the GI50 is > 100 µM (inactive) in the assay on A549; 71.1 µM (inactive) in the assay with ACHN; > 100 µM (inactive) in the assay with BT-549; > 100 µM (inactive) in the assay on EKVX; > 100 µM (inactive) with HCC 2998; 26.7 µM (inactive) in the assay on HCT-116. The GI50 with HL-60, in the assay with HOP-62, in the assay with HT-29, in the assay with K562, with MCF7 and with OVCAR-8 was > 100 µM (inactive) in each case. For the same molecule, the GI50 in the assay with SF-295, in the assay with SF-539, in the assay on SK-MEL-2, with SK-MEL-5, with SK-OV-3 and in the assay on SN12C was > 100 µM (inactive) in each case. The GI50 with SNB-75 and with UACC-62 was > 100 µM (inactive) throughout.

`CCCCCCCCCCCCCCCCCCNc1ccn(C2OC(COP(=O)(O)OCC(COP(=O)(O)OCC3OC(n4cc(C)c(=O)[nH]c4=O)CC3N=[N+]=[N-])OCCCCCCCCCCCCCCCCCC)C(O)C2O)c(=O)n1` (stereo not drawn): the GI50 in the assay with A549 was 51.6 µM (inactive); in the assay with ACHN, > 100 µM (inactive); with BT-549, 90.4 µM (inactive); in the assay with EKVX it was > 100 µM (inactive); in the assay with HCC 2998, 99.1 µM (inactive); in the assay on HCT-116, 56.8 µM (inactive). Besides, the GI50 is > 100 µM (inactive) with HL-60; > 100 µM (inactive) in the assay on HOP-62; 28.5 µM (inactive) in the assay on HT-29; > 100 µM (inactive) in the assay with K562; 34.4 µM (inactive) in the assay with MCF7; 60.5 µM (inactive) in the assay with OVCAR-8. The GI50 with SF-295 is > 100 µM (inactive); in the assay with SF-539, 27 µM (inactive); with SK-MEL-2, > 100 µM (inactive); with SK-MEL-5 it was 86.5 µM (inactive); in the assay on SK-OV-3 it was > 100 µM (inactive); in the assay with SN12C, > 100 µM (inactive). Besides, the GI50 in the assay with SNB-75 is 49 µM (inactive); with UACC-62, 49.5 µM (inactive).

Consider `Cc1occc1/C(S)=N\c1ccc(Cl)c(C(=O)OCC(F)(F)F)c1`, for which the GI50 is 23.1 µM (inactive) in the assay with A549; 21.8 µM (inactive) in the assay on ACHN; 20.5 µM (inactive) with BT-549; 25.5 µM (inactive) in the assay with EKVX; 18.7 µM (inactive) with HCC 2998; 17.9 µM (inactive) in the assay with HCT-116. Moreover, the GI50 in the assay on HL-60 was 24.4 µM (inactive); in the assay with HT-29, 17.5 µM (inactive); in the assay with K562, 18.5 µM (inactive); with MCF7, 12.2 µM (inactive); in the assay with OVCAR-8 it was 16.7 µM (inactive); in the assay with SF-539 it was 4.31 µM (inactive). For the same molecule, the GI50 is 22 µM (inactive) with SK-MEL-2; 16.7 µM (inactive) with SK-MEL-5; 22.3 µM (inactive) in the assay on SK-OV-3; 18.8 µM (inactive) in the assay with SN12C; 24.1 µM (inactive) in the assay on SNB-75; 16.4 µM (inactive) in the assay with UACC-62.

Turning to `CC1=NN(c2nc(N)nc(C(C)Sc3cc(Cl)c(C)cc3S(N)(=O)=O)n2)C(C)(C)C1` (stereo not drawn), the GI50 in the assay with A549, in the assay with ACHN, in the assay with BT-549, in the assay with EKVX, with HCC 2998 and in the assay on HCT-116 was > 10 µM (inactive) throughout. Also, the GI50 in the assay with HL-60, in the assay with HOP-62, in the assay on HT-29, in the assay on K562, in the assay with MCF7 and in the assay with OVCAR-8 was > 10 µM (inactive) throughout. In addition, the GI50 in the assay on SF-295, in the assay with SF-539, with SK-MEL-2, with SK-MEL-5, in the assay with SK-OV-3 and in the assay on SN12C was > 10 µM (inactive) throughout. Besides, the GI50 in the assay on SNB-75 was > 10 µM (inactive).

For `COc1ccc(N2C(=O)C3c4[nH]c5ccc(OC)cc5c4C4CCC(C(C)C)CC4C3C2=O)cc1` (stereo not drawn), the GI50 in the assay with A549 is > 72.4 µM (inactive); with ACHN, > 100 µM (inactive); in the assay on BT-549 it was > 100 µM (inactive); in the assay on EKVX, > 93.3 µM (inactive); in the assay on HCC 2998, 33.7 µM (inactive); in the assay on HCT-116 it was > 55.3 µM (inactive). Also, the GI50 was 55.2 µM (inactive) in the assay with HL-60; 12 µM (inactive) in the assay with HOP-62; > 100 µM (inactive) with HT-29; 18.3 µM (inactive) with K562; > 100 µM (inactive) with MCF7; > 29.4 µM (inactive) with OVCAR-8. In addition, the GI50 with SF-295 was 31.2 µM (inactive); in the assay with SK-MEL-2, > 59.4 µM (inactive); in the assay on SK-MEL-5 it was > 100 µM (inactive); with SK-OV-3, 36.9 µM (inactive); in the assay on SN12C, > 100 µM (inactive); in the assay on SNB-75 it was 17.7 µM (inactive). For the same molecule, the GI50 in the assay with UACC-62 is > 31.6 µM (inactive).

As for `Cc1nc(N)c(N2CCN(CN)CC2)c(O)n1`, the GI50 in the assay with A549, with ACHN, with BT-549, with EKVX, in the assay with HCC 2998 and in the assay on HCT-116 was > 100 µM (inactive) throughout. In addition, the GI50 in the assay on HL-60, with HOP-62, in the assay on HT-29, in the assay with K562, in the assay on MCF7 and in the assay with OVCAR-8 was > 100 µM (inactive) in each case. The GI50 in the assay with SF-295, in the assay on SF-539, in the assay on SK-MEL-2, in the assay with SN12C and in the assay on SNB-75 was > 100 µM (inactive) throughout.
